Reference: publication PMC6306559 (Pharmacology Research & Perspectives, 2018)

Legend:
[1] = system: α1A‐AR expressing COS‐7 cells; assay type: cell-based, human; details: 10 μmol/L forskolin; for Modulation of forskolin CRE response by PDE inhibitor: IBMX 500 μmol/L, rolipram 10 μmol/L
[2] = system: α1A‐AR expressing COS‐7 cells; experiment: Phenylephrine-induced CRE reporter assay; assay type: cell-based; details: 0.1 μmol/L phenylephrine; for Effect of inhibitor on diazepam modulation of phenylephrine‐stimulated CRE response / Cotreatment with diazepam, effect on phenylephrine CRE response: 50 μmol/L diazepam; for Modulation of phenylephrine CRE response by PDE inhibitor: IBMX 500 μmol/L, rolipram 10 μmol/L
Protocol: cAMP response element (CRE) response assays were performed as previously described by transfecting WT α1A‐ and α1B‐AR stably expressing COS‐7 cells, parental COS‐7 cells or parental HEK293T cells, with a β‐galactosidase expression plasmid under the control of the CRE promoter.10 CRE reporter‐transfected cells were seeded into 96‐well culture plates for 24 hours before treatment with various compounds for 6 hours at 37°C 5% CO2. Media was aspirated, and the cells frozen at −80°C for at least 24 hours before measurement of cellular β‐galactosidase expression using chlorophenol red‐β‐D‐galactopyranoside. Ligands were made up in 0.5% FBS DMEM media. […] HEK293T cells transiently transfected with GPR68 and pCRE were stimulated with sodium bicarbonate‐free, low glucose DMEM, supplemented with 20 mmol/L HEPES and 0.5% FBS at pH 6.8, 7.0, 7.2, 7.4, and 7.8. The pH was adjusted at 37°C with NaOH. Cells were incubated for 6 hours at 37°C, in a room atmosphere incubator.
Nuclear magnetic resonance (NMR) data were processed in Topspin 3.5 using squared cosine‐bells in both dimensions and zero‐filled once, prior to Fourier‐transformation. All other data was analyzed with Graphpad prism 7 (San Diego, CA, USA). All error bars are standard deviation (SD) from three independent experiments. Competition binding assays were performed in duplicate wells. Curves were fit with one site nonlinear regression. For whole cell QAPB binding, the mean QAPB fluorescence intensity (MFI) of at lease 5000 cells was measured, and plotted against QAPB concentration. Values reported represent the mean and SD of at least three K d values calculated from separate measurements. Ca^2+ mobilization data were performed in triplicate wells and normalized to the peak response elicited by 3 μmol/L ionomycin. CRE assay was conducted in triplicate, and data were normalized to the response elicited by the vehicle. Curves were fitted with three variable nonlinear regressions. For GPR68 assays, responses were normalized to CRE response at pH 6.8 (100%) and pH 7.8 (0%).

[3] = system: guinea pig PDE‐4; details: benzodiazepines unsubstituted at N‐1; cited from earlier work

| Compound | Effect of inhibitor on diazepam modulation of forskolin‐stimulated CRE response ([1]; 50 μmol/L diazepam) | Effect of inhibitor on diazepam modulation of phenylephrine‐stimulated CRE response [2] | other results |
| --- | --- | --- | --- |
| NCCOB(c1ccccc1)c1ccccc1 [2‐APB] | had no significant effect | had no significant effect | – |
| COC(=O)C1=C(C)NC(C)=C([N+](=O)[O-])[C@@H]1c1ccccc1C(F)(F)F [(R)‐(+)‐Bay K 8644] | had no significant effect | had no significant effect | – |
| CC(C)Cn1c(=O)n(C)c(=O)c2[nH]cnc21 [IBMX] | – | – | Cotreatment with diazepam, effect on forskolin CRE response ([1]; 50 μmol/L diazepam): no additive effect was observed; Modulation of forskolin CRE response by PDE inhibitor [1]: positively modulated the CRE response of forskolin; Cotreatment with diazepam, effect on phenylephrine CRE response [2]: had no additional positive modulatory effect; Modulation of phenylephrine CRE response by PDE inhibitor [2]: positively modulated the CRE response of phenylephrine to a similar level as diazepam |
| COc1ccc(S(=O)(=O)N(CCO)c2ccccc2CN(C)C/C=C/c2ccc(Cl)cc2)cc1 [KN‐93] | had no significant effect | had no significant effect | – |
| Cl.NCCCCCCNS(=O)(=O)c1cccc2c(Cl)cccc12 [W‐7 hydrochloride] | had no significant effect on forskolin stimulation | significantly reduced both the phenylephrine response and the diazepam modulation of the CRE response | – |
| COC(=O)C1=C(C)NC(C)=C(C(=O)OC2CCCN(Cc3ccccc3)C2)C1c1cccc([N+](=O)[O-])c1 (centres unmarked) [benidipine] | had no effect | significantly reduced both the phenylephrine response and the diazepam modulation of the CRE response | – |
| CN1CCc2cc3c(cc2[C@H]1[C@@H]1OC(=O)c2c1ccc1c2OCO1)OCO3 [bicuculline] | had no effect | had no effect | – |
| O=C1CN=C(c2ccccc2Cl)c2cc([N+](=O)[O-])ccc2N1 [clonazepam] | – | – | Potency relative to diazepam [3]: less potent than diazepam |
| O=C1CN=C(c2ccccc2)c2cc([N+](=O)[O-])ccc2N1 [nitrazepam] | – | – | Potency relative to diazepam [3]: less potent than diazepam |
| COc1ccc(C2CNC(=O)C2)cc1OC1CCCC1 (centres unmarked) [rolipram] | – | – | Cotreatment with diazepam versus rolipram alone, forskolin CRE response ([1]; 50 μmol/L diazepam): significantly decreased; Cotreatment with diazepam, effect on forskolin CRE response ([1]; 50 μmol/L diazepam): no additive effect was observed; Modulation of forskolin CRE response by PDE inhibitor [1]: positively modulated the CRE response of forskolin; Cotreatment with diazepam, effect on phenylephrine CRE response [2]: had no additional positive modulatory effect; Modulation of phenylephrine CRE response by PDE inhibitor [2]: positively modulated the CRE response of phenylephrine to a similar level as diazepam |
